#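 Test compounds were applied to cells in 96-well plates for 48 hours at 5 doses. Here, GI50 denotes the concentration required for 50% inhibition of growth.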 The source made the active and inactive calls. No stated cut-off is given here; in the data, active = GI50 up to about 1.1 µM and inactive = higher.
# How the values were obtained:
# Test in all cases: inhibition of tumour cell growth, NCI panel, 48 h
# KM12 = system: KM12
# NCI-H522 = system: NCI-H522
# MOLT-4 = system: MOLT-4
# UACC-257 = system: UACC-257
# CAKI-1 = system: CAKI-1
# SN12C = system: SN12C
# TK-10 = system: TK-10
# EKVX = system: EKVX
# MDA-MB-231 = system: MDA-MB-231
# NCI/ADR-RES = system: NCI/ADR-RES
# HT-29 = system: HT-29
# SW-620 = system: SW-620
# CCRF-CEM = system: CCRF-CEM
# PC-3 = system: PC-3
# NCI-H23 = system: NCI-H23
# SF-268 = system: SF-268
# NCI-H460 = system: NCI-H460
# NCI-H226 = system: NCI-H226
# MDA-N = system: MDA-N
# COLO 205 = system: COLO 205
# Malme-3M = system: Malme-3M
# RXF 393 = system: RXF 393
# SK-MEL-5 = system: SK-MEL-5
# HL-60 = system: HL-60
# SK-OV-3 = system: SK-OV-3
# SNB-75 = system: SNB-75
# SNB-19 = system: SNB-19
# OVCAR-5 = system: OVCAR-5
# 786-0 = system: 786-0
# SF-539 = system: SF-539
# SK-MEL-2 = system: SK-MEL-2
# ACHN = system: ACHN
# HOP-62 = system: HOP-62
# HCT-15 = system: HCT-15
# HOP-92 = system: HOP-92
# SK-MEL-28 = system: SK-MEL-28
# T47D = system: T47D
# MCF7 = system: MCF7
# OVCAR-4 = system: OVCAR-4
# HCC 2998 = system: HCC 2998
# UACC-62 = system: UACC-62
# OVCAR-8 = system: OVCAR-8
# RPMI-8226 = system: RPMI-8226
# M14 = system: M14
# Hs-578T = system: Hs-578T
# SF-295 = system: SF-295
# A549 = system: A549
# DU-145 = system: DU-145
# HCT-116 = system: HCT-116
# SR = system: SR
# MDA-MB-435 = system: MDA-MB-435
# BT-549 = system: BT-549
# UO-31 = system: UO-31
# OVCAR-3 = system: OVCAR-3
# A498 = system: A498
# U-251 = system: U-251
# LOX IMVI = system: LOX IMVI
# IGROV-1 = system: IGROV-1
# K562 = system: K562
smiles,measurement,setting,value
Cc1ccc(C(CCO)CCO)nc1,GI50,KM12,> 100 µM (inactive)
same,GI50,NCI-H522,> 100 µM (inactive)
same,GI50,MOLT-4,> 100 µM (inactive)
same,GI50,UACC-257,> 100 µM (inactive)
same,GI50,CAKI-1,> 100 µM (inactive)
same,GI50,SN12C,> 100 µM (inactive)
same,GI50,TK-10,> 100 µM (inactive)
same,GI50,EKVX,> 100 µM (inactive)
same,GI50,MDA-MB-231,> 100 µM (inactive)
same,GI50,NCI/ADR-RES,> 100 µM (inactive)
same,GI50,HT-29,> 100 µM (inactive)
same,GI50,SW-620,> 100 µM (inactive)
same,GI50,CCRF-CEM,> 100 µM (inactive)
same,GI50,PC-3,> 100 µM (inactive)
same,GI50,NCI-H23,> 100 µM (inactive)
same,GI50,SF-268,> 100 µM (inactive)
same,GI50,NCI-H460,> 100 µM (inactive)
same,GI50,NCI-H226,> 100 µM (inactive)
same,GI50,MDA-N,> 100 µM (inactive)
same,GI50,COLO 205,> 100 µM (inactive)
same,GI50,Malme-3M,> 100 µM (inactive)
same,GI50,RXF 393,> 100 µM (inactive)
same,GI50,SK-MEL-5,> 100 µM (inactive)
same,GI50,HL-60,> 100 µM (inactive)
same,GI50,SK-OV-3,> 100 µM (inactive)
same,GI50,SNB-75,> 100 µM (inactive)
same,GI50,SNB-19,> 100 µM (inactive)
same,GI50,OVCAR-5,> 100 µM (inactive)
same,GI50,786-0,> 100 µM (inactive)
same,GI50,SF-539,> 100 µM (inactive)
same,GI50,SK-MEL-2,> 100 µM (inactive)
same,GI50,ACHN,> 100 µM (inactive)
same,GI50,HOP-62,> 100 µM (inactive)
same,GI50,HCT-15,> 100 µM
same,GI50,HOP-92,> 100 µM (inactive)
same,GI50,SK-MEL-28,> 100 µM (inactive)
same,GI50,T47D,> 100 µM (inactive)
same,GI50,MCF7,> 100 µM (inactive)
same,GI50,OVCAR-4,> 100 µM (inactive)
same,GI50,HCC 2998,> 100 µM (inactive)
same,GI50,UACC-62,> 100 µM (inactive)
same,GI50,OVCAR-8,> 100 µM (inactive)
same,GI50,RPMI-8226,> 100 µM (inactive)
same,GI50,M14,> 100 µM (inactive)
same,GI50,Hs-578T,> 100 µM (inactive)
same,GI50,SF-295,> 100 µM (inactive)
same,GI50,A549,> 100 µM (inactive)
same,GI50,DU-145,> 100 µM (inactive)
same,GI50,HCT-116,> 100 µM (inactive)
same,GI50,SR,> 100 µM (inactive)
same,GI50,MDA-MB-435,> 100 µM (inactive)
same,GI50,BT-549,> 100 µM (inactive)
same,GI50,UO-31,> 100 µM (inactive)
same,GI50,OVCAR-3,> 100 µM (inactive)
same,GI50,A498,> 100 µM (inactive)
same,GI50,U-251,> 100 µM (inactive)
same,GI50,LOX IMVI,> 100 µM (inactive)
C/C=C/[C@@H]1[C@H]2C(=O)[C@]3(Cl)[C@@H](/C=C/C)[C@@H]3C(=O)[C@@]12Cl,GI50,KM12,> 100 µM (inactive)
same,GI50,NCI-H522,> 100 µM (inactive)
same,GI50,MOLT-4,7.16 µM (inactive)
same,GI50,UACC-257,> 100 µM (inactive)
same,GI50,CAKI-1,> 100 µM (inactive)
same,GI50,SN12C,> 100 µM (inactive)
same,GI50,TK-10,> 100 µM (inactive)
same,GI50,EKVX,> 100 µM (inactive)
same,GI50,MDA-MB-231,94.2 µM (inactive)
same,GI50,NCI/ADR-RES,> 100 µM (inactive)
same,GI50,HT-29,> 100 µM (inactive)
same,GI50,SW-620,> 100 µM (inactive)
same,GI50,IGROV-1,> 100 µM (inactive)
same,GI50,CCRF-CEM,52 µM (inactive)
same,GI50,PC-3,> 100 µM (inactive)
same,GI50,NCI-H23,> 100 µM (inactive)
same,GI50,SF-268,> 100 µM (inactive)
same,GI50,NCI-H460,> 100 µM (inactive)
same,GI50,NCI-H226,> 100 µM (inactive)
same,GI50,MDA-N,> 100 µM (inactive)
same,GI50,COLO 205,> 100 µM (inactive)
same,GI50,Malme-3M,> 100 µM (inactive)
same,GI50,RXF 393,55.3 µM (inactive)
same,GI50,SK-MEL-5,> 100 µM (inactive)
same,GI50,HL-60,> 100 µM (inactive)
same,GI50,SK-OV-3,> 100 µM (inactive)
same,GI50,SNB-75,53.3 µM (inactive)
same,GI50,SNB-19,> 100 µM (inactive)
same,GI50,OVCAR-5,> 100 µM (inactive)
same,GI50,786-0,46.8 µM (inactive)
same,GI50,SF-539,> 100 µM (inactive)
same,GI50,SK-MEL-2,> 100 µM (inactive)
same,GI50,ACHN,> 100 µM (inactive)
same,GI50,HOP-62,33.7 µM (inactive)
same,GI50,HCT-15,> 100 µM
same,GI50,HOP-92,94 µM (inactive)
same,GI50,SK-MEL-28,> 100 µM (inactive)
same,GI50,T47D,> 100 µM (inactive)
same,GI50,MCF7,> 100 µM (inactive)
same,GI50,OVCAR-4,> 100 µM (inactive)
same,GI50,HCC 2998,> 100 µM (inactive)
same,GI50,UACC-62,> 100 µM (inactive)
same,GI50,OVCAR-8,> 100 µM (inactive)
same,GI50,M14,> 100 µM (inactive)
same,GI50,Hs-578T,35.2 µM (inactive)
same,GI50,K562,> 100 µM (inactive)
same,GI50,SF-295,> 100 µM (inactive)
same,GI50,A549,> 100 µM (inactive)
same,GI50,DU-145,> 100 µM (inactive)
same,GI50,HCT-116,> 100 µM (inactive)
same,GI50,SR,> 100 µM (inactive)
same,GI50,MDA-MB-435,> 100 µM (inactive)
same,GI50,BT-549,> 100 µM (inactive)
same,GI50,UO-31,> 100 µM (inactive)
same,GI50,OVCAR-3,> 100 µM (inactive)
same,GI50,A498,> 100 µM (inactive)
same,GI50,U-251,85.3 µM (inactive)
same,GI50,LOX IMVI,> 100 µM (inactive)
CC1(C)OC(=S)N(c2ccccc2)C12C=Cc1ccccc1O2 (configuration not stated),GI50,KM12,35 µM (inactive)
same,GI50,NCI-H522,20.2 µM (inactive)
same,GI50,MOLT-4,22.5 µM (inactive)
same,GI50,UACC-257,42.1 µM (inactive)
same,GI50,CAKI-1,> 100 µM (inactive)
same,GI50,SN12C,> 100 µM (inactive)
same,GI50,TK-10,> 100 µM (inactive)
same,GI50,EKVX,53.5 µM (inactive)
same,GI50,MDA-MB-231,> 100 µM (inactive)
same,GI50,NCI/ADR-RES,53.5 µM (inactive)
same,GI50,HT-29,56.6 µM (inactive)
same,GI50,SW-620,72.3 µM (inactive)
same,GI50,IGROV-1,41.6 µM (inactive)
same,GI50,CCRF-CEM,27.8 µM (inactive)
same,GI50,PC-3,41.7 µM (inactive)
same,GI50,NCI-H23,41 µM (inactive)
same,GI50,SF-268,> 100 µM (inactive)
same,GI50,NCI-H460,71.6 µM (inactive)
same,GI50,NCI-H226,85.3 µM (inactive)
same,GI50,MDA-N,39.5 µM (inactive)
same,GI50,COLO 205,63.4 µM (inactive)
same,GI50,RXF 393,> 100 µM (inactive)
same,GI50,SK-MEL-5,56.5 µM (inactive)
same,GI50,HL-60,8.59 µM (inactive)
same,GI50,SK-OV-3,16.6 µM (inactive)
same,GI50,SNB-75,49.2 µM (inactive)
same,GI50,SNB-19,> 100 µM (inactive)
same,GI50,OVCAR-5,> 100 µM (inactive)
same,GI50,786-0,> 100 µM (inactive)
same,GI50,SK-MEL-2,> 100 µM (inactive)
same,GI50,ACHN,> 100 µM (inactive)
same,GI50,HOP-62,> 100 µM (inactive)
same,GI50,HCT-15,58.9 µM
same,GI50,HOP-92,88.3 µM (inactive)
same,GI50,SK-MEL-28,> 100 µM (inactive)
same,GI50,T47D,20.5 µM (inactive)
same,GI50,MCF7,61.1 µM (inactive)
same,GI50,OVCAR-4,33.4 µM (inactive)
same,GI50,HCC 2998,> 100 µM (inactive)
same,GI50,UACC-62,75.5 µM (inactive)
same,GI50,OVCAR-8,> 100 µM (inactive)
same,GI50,RPMI-8226,24.8 µM (inactive)
same,GI50,M14,90.6 µM (inactive)
same,GI50,Hs-578T,> 100 µM (inactive)
same,GI50,K562,29.1 µM (inactive)
same,GI50,SF-295,73.5 µM (inactive)
same,GI50,A549,> 100 µM (inactive)
same,GI50,DU-145,> 100 µM (inactive)
same,GI50,HCT-116,36.6 µM (inactive)
same,GI50,SR,4.26 µM (inactive)
same,GI50,MDA-MB-435,36.4 µM (inactive)
same,GI50,BT-549,79.3 µM (inactive)
same,GI50,UO-31,45.6 µM (inactive)
same,GI50,OVCAR-3,> 100 µM (inactive)
same,GI50,A498,> 100 µM (inactive)
same,GI50,U-251,> 100 µM (inactive)
same,GI50,LOX IMVI,> 100 µM (inactive)

# From ChEMBL document CHEMBL1201862, “PubChem BioAssay data set” (2004)
